In paper PMC6350196 (Drug Metabolism Letters, 2018):

Assay: QSRR estimation of CHIn+Fbt and CHIbt from LC retention times
Type: physicochemical
Details: predicted (QSRR, equation 13); parent-drug label = average for that drug

CC(C)c1c(C(=O)Nc2ccccc2)c(-c2ccccc2)c(-c2ccc(F)cc2)n1CC[C@@H](O)C[C@@H](O)CC(=O)O [atorvastatin]
CHIbt, aromatic oxidation (w/o HB): -16.4
CHIbt, aromatic oxidation with HB: -2.9
